From the NIST ThermoML archive (doi:10.1021/je800355e)
Values joined by “and” are separate entries in the source; they are usually repeats but may differ in a detail not shown here. Equal entries are not always repeated. ± gives the expanded uncertainty stated by the source.

Test: activity coefficient (dimensionless); of the first substance listed, at infinite dilution; xn = mol fraction of the nth substance listed
Details: 101 kPa, Liquid, x1 = 0

Compound | activity coefficient (293.15 K, Chromatography) | activity coefficient (313.15 K, Chromatography) | activity coefficient (333.15 K, Chromatography) | activity coefficient (353.15 K, Chromatography) | activity coefficient (298.15 K, Chromatography) | activity coefficient (298.15 K) | activity coefficient (313.15 K) | activity coefficient (333.15 K) | activity coefficient (353.15 K)
CO [methanol] + CCCCn1cc[n+](C)c1.F[P-](F)(F)(F)(F)F | 2.59 ± 0.18 | 2.06 ± 0.14 | 1.67 ± 0.11 | 1.36 ± 0.09 | – | – | – | – | –
CCC(C)O (stereo unspecified) [butan-2-ol] + CCCCn1cc[n+](C)c1.COS(=O)(=O)[O-] | – | 1.31 ± 0.11 | 1.27 ± 0.1 | 1.21 ± 0.1 | 1.45 ± 0.12 | – | – | – | –
CCC(C)O (stereo unspecified) [butan-2-ol] + CCCCCC[n+]1ccn(C)c1.O=S(=O)([N-]S(=O)(=O)C(F)(F)F)C(F)(F)F | 2.03 ± 0.16 | 1.67 and 1.65 | 1.37 and 1.38 | 1.2 and 1.21 | – | – | – | – | –
CO [methanol] + CCCCCC[n+]1ccn(C)c1.O=S(=O)([N-]S(=O)(=O)C(F)(F)F)C(F)(F)F | 1.54 and 1.5 | 1.27 and 1.26 | 1.08 and 1.05 | 0.93 and 0.91 | – | – | – | – | –
CC(C)(C)O [2-methylpropan-2-ol] + CCCCn1cc[n+](C)c1.F[P-](F)(F)(F)(F)F | 4.83 ± 0.33 | 3.68 ± 0.25 | 2.97 ± 0.2 | 2.45 ± 0.17 | – | – | – | – | –
CCO [ethanol] + CCCCn1cc[n+](C)c1.F[P-](F)(F)(F)(F)F | 3.81 ± 0.26 | 2.94 ± 0.2 | 2.32 ± 0.16 | 1.85 ± 0.12 | – | – | – | – | –
CC(C)CO [2-methyl-1-propanol] + CCCCn1cc[n+](C)c1.F[P-](F)(F)(F)(F)F | 8.39 ± 0.57 | 5.74 ± 0.39 | 4.23 ± 0.29 | 3.23 ± 0.22 | – | – | – | – | –
CC(C)O [propan-2-ol] + CCCCn1cc[n+](C)c1.F[P-](F)(F)(F)(F)F | 4.8 ± 0.33 | 3.64 ± 0.25 | 2.83 ± 0.19 | 2.25 ± 0.15 | – | – | – | – | –
CCCO [propan-1-ol] + CCCCn1cc[n+](C)c1.F[P-](F)(F)(F)(F)F | 5.53 ± 0.38 | 4.14 ± 0.28 | 3.18 ± 0.22 | 2.45 ± 0.17 | – | – | – | – | –
CC(C)O [propan-2-ol] + CCCCCC[n+]1ccn(C)c1.O=S(=O)([N-]S(=O)(=O)C(F)(F)F)C(F)(F)F | 1.95 ± 0.15 | 1.56 and 1.53 | 1.17 and 1.15 | 1.08 and 1.02 | – | – | – | – | –
CC(C)CO [2-methyl-1-propanol] + CCCCCC[n+]1ccn(C)c1.O=S(=O)([N-]S(=O)(=O)C(F)(F)F)C(F)(F)F | 2.39 and 2.44 | 1.88 and 1.87 | 1.49 and 1.52 | 1.3 ± 0.1 | – | – | – | – | –
CCO [ethanol] + CCCCn1cc[n+](C)c1.COS(=O)(=O)[O-] | – | 0.61 ± 0.05 | 0.62 ± 0.05 | 0.59 ± 0.05 | 0.64 ± 0.05 | – | – | – | –
CCO [ethanol] + CCCCCC[n+]1ccn(C)c1.O=S(=O)([N-]S(=O)(=O)C(F)(F)F)C(F)(F)F | 1.85 and 1.82 | 1.49 and 1.47 | 1.24 and 1.23 | 1.05 and 1.03 | – | – | – | – | –
CCCCO [butan-1-ol] + CCCCn1cc[n+](C)c1.COS(=O)(=O)[O-] | – | – | – | – | – | 1.68 ± 0.14 | 1.44 ± 0.11 | 1.37 ± 0.1 | 1.21 ± 0.08
CCCCO [butan-1-ol] + CCCCCC[n+]1ccn(C)c1.O=S(=O)([N-]S(=O)(=O)C(F)(F)F)C(F)(F)F | 2.5 ± 0.19 | 2.02 ± 0.16 | 1.63 ± 0.12 | 1.33 ± 0.1 | – | – | – | – | –
CO [methanol] + CCCCn1cc[n+](C)c1.COS(=O)(=O)[O-] | – | 0.36 ± 0.04 | 0.33 ± 0.04 | 0.38 ± 0.04 | 0.39 ± 0.04 | – | – | – | –
CCCO [propan-1-ol] + CCCCn1cc[n+](C)c1.COS(=O)(=O)[O-] | – | 0.88 ± 0.07 | 0.89 ± 0.07 | 0.82 ± 0.07 | 0.96 ± 0.08 | – | – | – | –
CCC(C)O (stereo unspecified) [butan-2-ol] + CCCCn1cc[n+](C)c1.F[P-](F)(F)(F)(F)F | 6.47 ± 0.44 | 4.8 ± 0.33 | 3.69 ± 0.25 | 2.87 ± 0.2 | – | – | – | – | –
CCCCO [butan-1-ol] + CCCCn1cc[n+](C)c1.F[P-](F)(F)(F)(F)F | 8.17 ± 0.56 | 5.9 ± 0.4 | 4.49 ± 0.31 | 3.43 ± 0.23 | – | – | – | – | –
CC(C)O [propan-2-ol] + CCCCn1cc[n+](C)c1.COS(=O)(=O)[O-] | – | 0.94 ± 0.08 | 0.91 ± 0.07 | 0.88 ± 0.07 | 1.03 ± 0.08 | – | – | – | –
CC(C)CO [2-methyl-1-propanol] + CCCCn1cc[n+](C)c1.COS(=O)(=O)[O-] | – | 1.29 ± 0.11 | 1.28 ± 0.1 | 1.12 ± 0.09 | 1.44 ± 0.12 | – | – | – | –
CC(C)(C)O [2-methylpropan-2-ol] + CCCCCC[n+]1ccn(C)c1.O=S(=O)([N-]S(=O)(=O)C(F)(F)F)C(F)(F)F | 1.68 and 1.66 | 1.4 and 1.35 | 1.15 and 1.16 | 1.04 and 1.03 | – | – | – | – | –
CC(C)(C)O [2-methylpropan-2-ol] + CCCCn1cc[n+](C)c1.COS(=O)(=O)[O-] | – | 1.27 ± 0.1 | 1.19 ± 0.1 | 1.22 ± 0.1 | 1.38 ± 0.11 | – | – | – | –
CCCO [propan-1-ol] + CCCCCC[n+]1ccn(C)c1.O=S(=O)([N-]S(=O)(=O)C(F)(F)F)C(F)(F)F | 2.08 and 2.09 | 1.68 and 1.65 | 1.38 ± 0.1 | 1.19 and 1.18 | – | – | – | – | –
